Experimental data as given in PubChem BioAssay AID328 (DTP/NCI, 2004).
“And” between values parts separate entries of the source, which are not always exact repeats. Equal values may be shown once. Toxic doses and inconclusive results are not listed.

Test system: BDF1 mice, P388 leukemia ip, median survival T/C
Test: NCI In Vivo Anticancer Drug Screen. Data for tumor model P388 Leukemia (intraperitoneal) in B6D2F1 (BDF1) mice
Conditions: endpoint: median survival time, higher = longer survival
How it was run: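 Antitumour effect was judged in vivo: survival in drug-treated mice, normalised to that of vehicle-dosed controls, gives the reported T/C.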

[1] = dose: 50.0 mg/kg/injection, schedule: Q01DX009 (ip), vehicle: saline with Tween-80
[2] = dose: 100.0 mg/kg/injection, schedule: Q01DX009 (ip), vehicle: saline with Tween-80
[3] = dose: 100.0 mg/kg/injection, schedule: Q04DX003 (ip), vehicle: saline with Tween-80
[4] = dose: 200.0 mg/kg/injection, schedule: Q01DX009 (ip), vehicle: saline with Tween-80
[5] = dose: 200.0 mg/kg/injection, schedule: Q04DX003 (ip), vehicle: saline with Tween-80
[6] = dose: 25.0 mg/kg/injection, schedule: Q01DX009 (ip), vehicle: saline with Tween-80
[7] = dose: 25.0 mg/kg/injection, schedule: Q04DX003 (ip), vehicle: water
[8] = dose: 50.0 mg/kg/injection, schedule: Q04DX003 (ip), vehicle: water
[9] = dose: 200.0 mg/kg/injection, schedule: Q04DX003 (ip), vehicle: water

c1cc2c3c(c1)/C(=N\N=C1/CCN4CCCc5cccc1c54)CCN3CCC2
T/C [1]: 104 % of control
T/C (dose: 50.0 mg/kg/injection, schedule: Q04DX003 (ip), vehicle: saline with Tween-80): 90 % of control
T/C [2]: 104 % of control
T/C [3]: 100 % of control
T/C [4]: 104 % of control
T/C [5]: 100 % of control

COc1ccc(/C=C(/C#N)c2ccccc2)cc1
T/C [6]: 93 % of control
T/C [1]: 97 % of control
T/C [2]: 103 % of control
T/C [4]: 111 % of control

C=CCN1C(=O)CNC1=O
T/C (dose: 50.0 mg/kg/injection, schedule: Q01DX009 (ip), vehicle: saline): 93 % of control
T/C (dose: 100.0 mg/kg/injection, schedule: Q01DX009 (ip), vehicle: saline): 100 % of control
T/C (dose: 200.0 mg/kg/injection, schedule: Q01DX009 (ip), vehicle: saline): 101 % of control

COc1cccc(C(O)c2ccncc2C)c1OC (stereo not drawn)
T/C (dose: 12.5 mg/kg/injection, schedule: Q04DX003 (ip), vehicle: water): 103 % of control
T/C [7]: 97 % of control
T/C [8]: 102 % of control
T/C (dose: 100.0 mg/kg/injection, schedule: Q04DX003 (ip), vehicle: water): 112 % of control
T/C [9]: 97 % of control

[Cl][Pt+2][Cl].[NH-]C1CCC1.[NH-]C1CCC1
T/C (dose: 12.5 mg/kg/injection, schedule: Q01DX009 (ip), vehicle: Klucel (hydroxypropylcellulose) (HPC)): 173 % of control and 201 % of control
T/C (dose: 25.0 mg/kg/injection, schedule: Q01DX009 (ip), vehicle: Klucel (hydroxypropylcellulose) (HPC)): 195 % of control and 213 % of control
T/C (dose: 50.0 mg/kg/injection, schedule: Q01DX009 (ip), vehicle: Klucel (hydroxypropylcellulose) (HPC)): 94 % of control and 115 % of control

CN(C)c1ccc(/C=C/c2cc(N(CCO)CCO)c3ccccc3n2)cc1
T/C [1]: 100 % of control
T/C [2]: 99 % of control
T/C [4]: 91 % of control

COC(=O)C(Br)C(Br)c1ccc(-c2ccccc2)cc1 (stereo not drawn)
T/C [3]: 92 % of control
T/C [5]: 89 % of control
T/C (dose: 400.0 mg/kg/injection, schedule: Q04DX003 (ip), vehicle: saline with Tween-80): 104 % of control

C[NH-].C[NH-].O=C(O)C(=O)O.[Pt+2]
T/C (dose: 2.0 mg/kg/injection, schedule: Q04DX003 (ip), vehicle: other): 158 % of control
T/C (dose: 3.0 mg/kg/injection, schedule: Q04DX003 (ip), vehicle: other): 200 % of control
T/C (dose: 4.4 mg/kg/injection, schedule: Q04DX003 (ip), vehicle: other): 154 % of control
T/C (dose: 4.5 mg/kg/injection, schedule: Q04DX003 (ip), vehicle: other): 166 % of control
T/C (dose: 6.7 mg/kg/injection, schedule: Q04DX003 (ip), vehicle: other): 186 % of control
T/C (dose: 10.0 mg/kg/injection, schedule: Q04DX003 (ip), vehicle: other): 190 % of control
T/C (dose: 10.5 mg/kg/injection, schedule: Q04DX003 (ip), vehicle: other): 170 % of control
T/C (dose: 12.5 mg/kg/injection, schedule: Q04DX003 (ip), vehicle: other): 208 % of control
T/C (dose: 16.0 mg/kg/injection, schedule: Q04DX003 (ip), vehicle: other): 208 % of control
T/C (dose: 25.0 mg/kg/injection, schedule: Q04DX003 (ip), vehicle: other): 250 % of control and 254 % of control and 183 % of control
T/C (dose: 100.0 mg/kg/injection, schedule: Q04DX003 (ip), vehicle: other): 90 % of control

O=[N+]([O-])c1cc(-c2nc3ccccc3[nH]2)cc([N+](=O)[O-])c1
T/C [1]: 110 % of control
T/C [2]: 91 % of control

O=C(NC(COC(=O)C(Cc1ccccc1)NC(=O)c1ccccc1)Cc1ccccc1)c1ccccc1 (stereo not drawn)
T/C (dose: 4.0 mg/kg/injection, schedule: Q01DX009 (ip), vehicle: Klucel (hydroxypropylcellulose) (HPC)): 102 % of control
T/C (dose: 8.0 mg/kg/injection, schedule: Q01DX009 (ip), vehicle: Klucel (hydroxypropylcellulose) (HPC)): 104 % of control
T/C (dose: 16.0 mg/kg/injection, schedule: Q01DX009 (ip), vehicle: Klucel (hydroxypropylcellulose) (HPC)): 93 % of control
T/C (dose: 32.0 mg/kg/injection, schedule: Q01DX009 (ip), vehicle: Klucel (hydroxypropylcellulose) (HPC)): 98 % of control

CN(C)c1ccc(/C=C/c2ccncc2)cc1
T/C (dose: 3.13 mg/kg/injection, schedule: Q01DX009 (ip), vehicle: saline with Tween-80): 115 % of control

CC[n+]1c(-c2ccccc2)c2cc(N)ccc2c2ccc(N)cc21
T/C (dose: 1.56 mg/kg/injection, schedule: Q01DX009 (ip), vehicle: saline): 151 % of control
T/C (dose: 3.13 mg/kg/injection, schedule: Q01DX009 (ip), vehicle: saline): 178 % of control
T/C (dose: 5.0 mg/kg/injection, schedule: Q01DX010 (ip), vehicle: saline): 155 % of control
T/C (dose: 5.3 mg/kg/injection, schedule: Q01DX009 (ip), vehicle: saline): 208 % of control
T/C (dose: 6.25 mg/kg/injection, schedule: Q01DX009 (ip), vehicle: saline): 163 % of control
T/C (dose: 6.25 mg/kg/injection, schedule: Q01DX009 (ip), vehicle: water): 163 % of control
T/C (dose: 8.0 mg/kg/injection, schedule: Q01DX009 (ip), vehicle: saline): 198 % of control and 222 % of control
T/C (dose: 12.0 mg/kg/injection, schedule: Q01DX009 (ip), vehicle: saline): 227 % of control and 196 % of control
T/C (dose: 12.5 mg/kg/injection, schedule: Q01DX009 (ip), vehicle: saline with Tween-80): 113 % of control
T/C (dose: 12.5 mg/kg/injection, schedule: Q01DX009 (ip), vehicle: water): 113 % of control
T/C (dose: 20.0 mg/kg/injection, schedule: Q01DX010 (ip), vehicle: saline): 114 % of control and 120 % of control
T/C (dose: 27.0 mg/kg/injection, schedule: Q01DX009 (ip), vehicle: saline): 97 % of control

c1ccc(N=N/C(=N\Nc2ccccc2)SCCS/C(N=Nc2ccccc2)=N/Nc2ccccc2)cc1
T/C [6]: 99 % of control
T/C [1]: 99 % of control
T/C [2]: 121 % of control

O/C(=C/C(=S)S)c1ccco1
T/C (dose: 25.0 mg/kg/injection, schedule: Q01DX009 (ip), vehicle: water): 93 % of control
T/C [7]: 94 % of control
T/C (dose: 50.0 mg/kg/injection, schedule: Q01DX009 (ip), vehicle: water): 91 % of control
T/C [8]: 93 % of control
T/C (dose: 100.0 mg/kg/injection, schedule: Q01DX009 (ip), vehicle: water): 92 % of control
T/C (dose: 200.0 mg/kg/injection, schedule: Q01DX009 (ip), vehicle: water): 102 % of control
T/C [9]: 93 % of control
T/C (dose: 400.0 mg/kg/injection, schedule: Q01DX009 (ip), vehicle: water): 93 % of control
T/C (dose: 400.0 mg/kg/injection, schedule: Q04DX003 (ip), vehicle: water): 97 % of control

Cc1ccc(NC(=O)N(CCCl)N=O)cc1C
T/C (dose: 6.6 mg/kg/injection, schedule: Q04DX003 (ip), vehicle: saline with Tween-80): 159 % of control
T/C (dose: 10.0 mg/kg/injection, schedule: Q04DX003 (ip), vehicle: saline with Tween-80): 209 % of control
T/C (dose: 15.0 mg/kg/injection, schedule: Q04DX003 (ip), vehicle: saline with Tween-80): 204 % of control

O=C(OCCBr)c1ccccc1[N+](=O)[O-]
T/C (dose: 100.0 mg/kg/injection, schedule: Q04DX003 (ip), vehicle: saline): 100 % of control
T/C (dose: 200.0 mg/kg/injection, schedule: Q04DX003 (ip), vehicle: saline): 104 % of control
T/C (dose: 400.0 mg/kg/injection, schedule: Q04DX003 (ip), vehicle: saline): 109 % of control

O=C1c2ccccc2C(=O)N1N(c1ccccc1)c1ccccc1
T/C (dose: 100.0 mg/kg/injection, schedule: Q01DX009 (ip), vehicle: Klucel (hydroxypropylcellulose) (HPC)): 104 % of control
T/C (dose: 100.0 mg/kg/injection, schedule: Q04DX003 (ip), vehicle: Klucel (hydroxypropylcellulose) (HPC)): 110 % of control
T/C (dose: 200.0 mg/kg/injection, schedule: Q04DX003 (ip), vehicle: Klucel (hydroxypropylcellulose) (HPC)): 120 % of control
T/C (dose: 400.0 mg/kg/injection, schedule: Q01DX009 (ip), vehicle: Klucel (hydroxypropylcellulose) (HPC)): 100 % of control
T/C (dose: 400.0 mg/kg/injection, schedule: Q04DX003 (ip), vehicle: Klucel (hydroxypropylcellulose) (HPC)): 105 % of control

O=C1C=CC(=O)C(c2ccccc2)=C1
T/C (dose: 12.5 mg/kg/injection, schedule: Q01DX001 (ip), vehicle: Klucel (hydroxypropylcellulose) (HPC)): 110 % of control
T/C (dose: 25.0 mg/kg/injection, schedule: Q01DX001 (ip), vehicle: Klucel (hydroxypropylcellulose) (HPC)): 100 % of control
T/C (dose: 50.0 mg/kg/injection, schedule: Q01DX001 (ip), vehicle: Klucel (hydroxypropylcellulose) (HPC)): 100 % of control
